Assay results from US20200009173A1, “TRIAZOLE-CONTAINING MACROLIDES AND OPHTHALMIC USES THEREFOR” (Tetard, Inc., priority 2017, published 2020).

Legend:
[1] = tested on: Streptococci (Groups C, F, G); assay: MIC, Streptococci (Groups C, F, G); assay type: cell-based; conditions: N = 185
[2] = tested on: pathogenic bacteria; assay type: cell-based
[3] = Corneal permeability, Franz-Cell Diffusion Apparatus; assay type: in vitro ADME; conditions: bovine (calf), pH 7
Experimental: EXAMPLE. Corneal Permeability. Corneal permeability is determined using conventional protocols. Briefly, corneal permeability is determined on freshly excised bovine (calf) cornea using a Franz-Cell Diffusion Apparatus generally with n=3/group. Freshly excised calf cornea are stored until use in hydrating solution containing glutathione and buffer. The Apparatus includes a donor chamber on the top where a predetermined volume of the formulation is pipetted and a jacketed receptor cell with a sampling side arm. The joint between the donor and receptor cell is upward-convex, mimicking the shape of the cornea. The corneal membrane is placed on the ball joint with the cornea facing the donor chamber. The Apparatus is clamped to secure the cells with the donor and receptor chambers aligned. […] The volume is recorded. […] Test samples are added in rapid succession by depositing 200 μL of the formulation into each donor chamber using a calibrated pipet and the times recorded. […] Flux can be calculated by the formula: J=Q/(A·t), where Q is the quantity (micrograms) of compound traversing the membrane in time t (minutes), and A is the area of exposed membrane in cm^2. […] After completion of the diffusion, corneas are weighed to determine the quantity of bound test compound in the cornea, and the corneal thicknesses of each cornea is measured at the point of diffusion (the center) using Vernier calipers. […]

SMILES: CC[C@H]1OC(=O)[C@@](C)(F)C(=O)[C@H](C)[C@@H](O[C@@H]2O[C@H](C)C[C@H](N(C)C)[C@H]2O)[C@](C)(OC)C[C@@H](C)C(=O)[C@H](C)[C@H]2N(CCCCn3cc(-c4cccc(N)c4)nn3)C(=O)O[C@]12C [CEM-101, solithromycin]
- MIC50 [1]: ≤ 0.03 µg/mL
- MIC90 [1]: ≤ 0.03 µg/mL
- MIC Range [1]: ≤0.03-0.25^ μg/mL
- activity against AZI resistant strains [2]: active against all AZI resistant strains tested
- activity at acidic pH relative to AZI ([2]; acidic pH, including in L. monocytogenes and S. aureus): 100-200 fold
- activity relative to conventional macrolides ([2]; greater activity than conventional macrolides): 10 fold
- intracellular activity relative to AZI ([2]; intracellular): 10 fold
- activity against phagocytized L. monocytogenes and L. pneumophila relative to conventional macrolides ([2]; phagocytized bacteria): 50-100 fold
- concentration in receptor fluid (therapeutically effective) ([3]; 1 h): ≥ 1000 ng/mL
- time after administration at which drug was observed in receptor fluid [3]: ≤ 1 h
